Legend:
[1] = system: bovine kidney N-acetyl-β-glucosaminidase; assay: Glycosidase inhibition, laboratory 2: N-acetyl-β-glucosaminidase; format: biochemical; conditions: water
Protocol: (§1) All enzymes and para-nitrophenyl substrates were purchased from Sigma. Enzymes were assayed at 27 °C in 0.1 M citric acid/0.2 M disodium hydrogen phosphate buffers at the optimum pH for the enzyme. The incubation mixture consisted of 10 μL enzyme solution, 10 μL of 1 mg/mL aqueous solution of extract and 50 μL of the appropriate 5 mM para-nitrophenyl substrate made up in buffer at the optimum pH for the enzyme. The reactions were stopped by addition of 70 μL 0.4 M glycine (pH 10.4) during the exponential phase of the reaction, which had been determined at the beginning using uninhibited assays in which water replaced inhibitor. Final absorbances were read at 405 nm using a Versamax microplate reader (Molecular Devices). Assays were carried out in triplicate, and the values given are means of the three replicates per assay. All reactions run in water.

almond β-glucosidase = assay: Glycosidase inhibition, laboratory 1: almond β-glucosidase; format: biochemical; conditions: methanol
Text: (§2) The enzymes α-glucosidase (from yeast), β-glucosidases (from almond and bovine liver), α-galactosidase (from coffee beans), β-galactosidase (from bovine liver), α-mannosidase (from Jack bean), β-mannosidase (from snail), α-L-rhamnosidase (from Penicillium decumbens), α-L-fucosidase (from bovine kidney), trehalase (from porcine kidney), β-glucuronidases (from E. coli and bovine liver), amyloglucosidase (from A. niger), para-nitrophenyl glycosides, and various disaccharides were purchased from Sigma-Aldrich Co (St Louis, MO, USA).
(§3) Brush border membranes were prepared from the rat small intestine according to the method of Kessler et al. and were assayed at pH 6.8 for rat intestinal maltase using maltose. For rat intestinal maltase, porcine kidney trehalase, and A. niger amyloglucosidase activities, the reaction mixture contained 25 mM maltose and the appropriate amount of enzyme, and the incubations were performed for 10–30 min at 37 °C. The reaction was stopped by heating at 100 °C for 3 min. After centrifugation (600× g; 10 min), the resulting reaction mixture was added to the Glucose CII-test Wako (Wako Pure Chemical Ind., Osaka, Japan). The absorbance at 505 nm was measured to determine the amount of the released D-glucose. Other glycosidase activities were determined using an appropriate para-nitrophenyl glycoside as substrate at the optimum pH of each enzyme. The reaction mixture contained 2 mM of the substrate and the appropriate amount of enzyme. The reaction was stopped by addition of 400 mM Na2CO3. The released para-nitrophenol was measured spectrometrically at 400 nm. All reactions run in methanol.

H460 = assay: MTT cell growth inhibition: H460; format: cell-based; conditions: H460 lung carcinoma; for Percentage (%) Cell Growth Inhibition in response to 25 µM of Drug / inhibition at 25 µM: 72 h, MTT; for inhibition at 25 µM / GI50: Homo sapiens; for inhibition at 25 µM: NCI-H460, read-out: Percentage (%) Cell Growth Inhibition in response to 25 µM of Drug; for GI50: NCI-H460, read-out: GI50 = Concentration (µM) that inhibits cell growth by 50%, dose response
Protocol: (§4) All test agents were prepared as stock solutions (20 mM) in dimethyl sulfoxide (DMSO) and stored at −20 °C. Cell lines used in the study included HT29 (colorectal carcinoma); U87, SJ-G2, (glioblastoma); MCF-7, (breast carcinoma); A2780 (ovarian carcinoma); H460 (lung carcinoma); A431 (skin carcinoma); Du145 (prostate carcinoma); BE2-C (neuroblastoma); MiaPaCa-2 (pancreatic carcinoma); and SMA560 (spontaneous murine astrocytoma), together with the one non-tumour-derived normal breast cell line (MCF10A). All cell lines were incubated in a humidified atmosphere 5% CO2 at 37 °C. The cancer cell lines were maintained in Dulbecco’s modified Eagle’s medium (DMEM; Sigma, Australia) supplemented with foetal bovine serum (10%), sodium pyruvate (10 mM), penicillin (100 IUmL^−1), streptomycin (100 µg mL^−1) and L-glutamine (2 mM).
(§5) Growth inhibition was determined by plating cells in duplicate in medium (100 µL) at a density of 2500–4000 cells per well in 96-well plates. On day 0 (24 h after plating), when the cells were in logarithmic growth, medium (100 µL) with or without the test agent was added to each well. After 72 h drug exposure, growth inhibitory effects were evaluated using the MTT (3-(4,5-dimethyltiazol-2-yl)-2,5-diphenyltetrazolium bromide) assay and absorbance read at 540 nm. The percentage growth inhibition was calculated at a fixed concentration of 25 µM, based on the difference between the optical density values on day 0 and those at the end of drug exposure. Each data point is the mean ± the standard error of the mean (SEM) calculated from three replicates which were performed on separate occasions and separate cell line passages.

[2] = target: T1, bovine kidney α-L-fucosidase (Bos taurus, UniProt Q2KIM0); assay: Glycosidase inhibition, laboratory 1: α-L-fucosidase; format: biochemical; conditions: methanol
T1 construct: purchased Sigma-Aldrich Co
T1 sequence (Q2KIM0 23-468): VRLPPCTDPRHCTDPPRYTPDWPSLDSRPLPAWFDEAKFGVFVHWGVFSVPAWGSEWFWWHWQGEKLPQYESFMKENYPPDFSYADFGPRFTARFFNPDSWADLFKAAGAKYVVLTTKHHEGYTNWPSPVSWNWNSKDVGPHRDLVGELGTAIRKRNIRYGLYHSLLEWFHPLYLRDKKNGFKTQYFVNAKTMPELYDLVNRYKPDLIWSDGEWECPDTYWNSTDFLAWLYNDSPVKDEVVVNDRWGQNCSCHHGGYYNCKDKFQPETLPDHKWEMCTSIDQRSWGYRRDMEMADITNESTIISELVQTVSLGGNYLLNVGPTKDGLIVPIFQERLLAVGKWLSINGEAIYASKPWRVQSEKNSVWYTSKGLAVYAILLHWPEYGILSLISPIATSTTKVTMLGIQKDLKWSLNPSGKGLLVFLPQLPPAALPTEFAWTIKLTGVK
Text: as §2, §3

A2780 = assay: MTT cell growth inhibition: A2780; format: cell-based; conditions: A2780 ovarian carcinoma; for Percentage (%) Cell Growth Inhibition in response to 25 µM of Drug / inhibition at 25 µM: 72 h, MTT; for inhibition at 25 µM / GI50: Homo sapiens; for inhibition at 25 µM: read-out: Percentage (%) Cell Growth Inhibition in response to 25 µM of Drug; for GI50: read-out: GI50 = Concentration (µM) that inhibits cell growth by 50%, dose response
Protocol: as §4, §5

MIA-Pa-Ca2 = assay: MTT cell growth inhibition: MIA-Pa-Ca2; format: cell-based; conditions: 72 h; for Percentage (%) Cell Growth Inhibition in response to 25 µM of Drug: MIA-Pa-Ca2 pancreatic carcinoma; for inhibition at 25 µM: Homo sapiens, MIA PaCa-2, MIA-Pa-Ca2 pancreatic carcinoma, read-out: Percentage (%) Cell Growth Inhibition in response to 25 µM of Drug
Protocol: as §4, §5

A431 = assay: MTT cell growth inhibition: A431; format: cell-based; conditions: A431 skin carcinoma; for Percentage (%) Cell Growth Inhibition in response to 25 µM of Drug / inhibition at 25 µM: 72 h, MTT; for inhibition at 25 µM / GI50: Homo sapiens; for inhibition at 25 µM: A-431, read-out: Percentage (%) Cell Growth Inhibition in response to 25 µM of Drug; for GI50: A-431, read-out: GI50 = Concentration (µM) that inhibits cell growth by 50%, dose response
Protocol: as §4, §5

[3] = target: T2, coffee beans α-galactosidase (Coffea arabica, UniProt Q42656); assay: Glycosidase inhibition, laboratory 1: coffee beans α-galactosidase; format: biochemical; conditions: methanol
T2 construct: purchased Sigma-Aldrich Co
Text: as §2, §3

[4] = system: bovine liver β-glucuronidase; assay: Glycosidase inhibition, laboratory 2: bovine liver β-glucuronidase; format: biochemical; conditions: water
Protocol: as §1

MCF10A = assay: MTT cell growth inhibition: MCF10A normal breast; format: cell-based; conditions: 72 h; for Percentage (%) Cell Growth Inhibition in response to 25 µM of Drug: MCF10A breast (normal), MTT; for inhibition at 25 µM: Homo sapiens, MCF-10A, read-out: Percentage (%) Cell Growth Inhibition in response to 25 µM of Drug
Protocol: as §4
The non-cancer MCF10A cell line was maintained in DMEM:F12 (1:1) cell culture media, 5% heat-inactivated horse serum, supplemented with penicillin (50 IUmL^−1), streptomycin (50 µg mL^−1), HEPES (20 mM), L-glutamine (2 mM), epidermal growth factor (20 ng mL^−1), hydrocortisone (500 ng mL^−1), cholera toxin (100 ng mL^−1) and insulin ([…]).
as §5

T2 sequence (Q42656 16-378): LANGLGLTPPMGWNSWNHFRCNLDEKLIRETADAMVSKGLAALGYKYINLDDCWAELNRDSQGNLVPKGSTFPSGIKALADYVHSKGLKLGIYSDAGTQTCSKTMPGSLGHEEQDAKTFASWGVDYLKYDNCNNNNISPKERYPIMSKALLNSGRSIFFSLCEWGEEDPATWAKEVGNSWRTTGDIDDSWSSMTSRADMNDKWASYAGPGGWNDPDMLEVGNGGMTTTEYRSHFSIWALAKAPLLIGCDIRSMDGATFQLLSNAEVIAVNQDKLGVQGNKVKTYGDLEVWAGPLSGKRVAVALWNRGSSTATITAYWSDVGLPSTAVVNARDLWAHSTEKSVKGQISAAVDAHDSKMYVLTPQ

Row | Molecule | % inhibition at ~400 μM [1] [%] | % inhibition at ~400 μM [4] [%] | inhibition % at 100 μM (almond β-glucosidase) | inhibition at 25 µM (H460) [%] | inhibition at 25 µM (A2780) [%] | inhibition at 25 µM (MIA-Pa-Ca2) [%] | inhibition at 25 µM (A431) [%] | inhibition at 25 µM (MCF10A) [%] | GI50 (H460) [µM] | GI50 (A2780) [µM] | GI50 (A431) [µM] | inhibition at 100 µM ([2]; 100 μM) [%] | inhibition at 100 µM ([3]; 100 μM) [%] | further results
1 | Borocaptate sodium [BSH, reference compound] | 37.1 | 31.6 |  |  |  |  |  |  |  |  |  |  |  | inhibition % at 1000 μM (almond β-glucosidase; 1000 μM): ^aNI ^b (0%); Percentage (%) Cell Growth Inhibition in response to 25 µM of Drug (H460): 8 ± 2%; inhibition % at 1000 μM ([2]; 1000 μM): ^aNI ^b (0%); Percentage (%) Cell Growth Inhibition in response to 25 µM of Drug (A2780): 2 ± 5%; Percentage (%) Cell Growth Inhibition in response to 25 µM of Drug (MIA-Pa-Ca2): 2 ± 6%; Percentage (%) Cell Growth Inhibition in response to 25 µM of Drug (A431): <0%; inhibition % at 1000 μM ([3]; 1000 μM): ^aNI ^b (12.3%); Percentage (%) Cell Growth Inhibition in response to 25 µM of Drug (MCF10A): 8 ± 3%
2 | N[C@@H](Cc1ccc(B(O)O)cc1)C(=O)O [BPA, 4-borono-L-phenylalanine, reference compound] |  |  | ^cNI ^d (0%) | 7 ± 8 | 4 ± 1 | 3 ± 3 | 4 ± 6 | 4 ± 1 |  |  |  |  |  | % inhibition at ~400 μM ([1]; 400 µM): 6.7%; % inhibition at ~400 μM ([4]; 400 µM): −0.7%
3 | CC1(C)OB(c2ccccc2NC(=O)c2cc(Cl)c(Cl)c(Cl)c2Cl)OC1(C)C [ortho 5, 2,3,4,5-Tetrachloro-N-(2-(4,4,5,5-tetramethyl-1,3,2-dioxaborolan-2-yl)phenyl)benzamide] | 28.8 | −3.5 |  | > 100 | 97 ± 2 | 100 ± 3 | 100 ± 2 | 58 ± 9 | 13 ± 1 | 16 ± 1.2 | 11 ± 1.8 |  |  | inhibition % at 10 μM (almond β-glucosidase): ^cNI ^d (11.6%); inhibition at 10 µM [2]: 0%; inhibition at 10 µM [3]: 0%
4 | CC1(C)OB(c2ccc(CN3C(=O)c4c(Cl)c(Cl)c(Cl)c(Cl)c4C3=O)cc2)OC1(C)C [para 3, 4,5,6,7-Tetrachloro-2-(4-(4,4,5,5-tetramethyl-1,3,2-dioxaborolan-2-yl)benzyl)isoindoline-1,3-dione] | 8.3 | 2.1 | ^aNI ^b (0.7%) | 100 ± 2 | > 100 | 98 ± 3 | 85 ± 8 | > 100 | 13 ± 0.33 | 11 ± 1.1 | 18 ± 2.3 | 0 | 0.2 | 
5 | N[C@@H](Cc1ccc(B(O)O)cc1)C(=O)O [^10B-BPA, reference compound] |  |  | ^cNI ^d (0%) |  |  |  |  |  |  |  |  |  |  | % inhibition at ~400 μM ([1]; 400 µM): 6.3%; Percentage (%) Cell Growth Inhibition in response to 25 µM of Drug (H460): 8 ± 5%; inhibition % at 100 μM ([2]; 100 μM): ^cNI ^d (0%); Percentage (%) Cell Growth Inhibition in response to 25 µM of Drug (A2780): 8 ± 4%; Percentage (%) Cell Growth Inhibition in response to 25 µM of Drug (MIA-Pa-Ca2): 11 ± 3%; Percentage (%) Cell Growth Inhibition in response to 25 µM of Drug (A431): 4 ± 4%; inhibition % at 100 μM ([3]; 100 μM): ^cNI ^d (1.2%); % inhibition at ~400 μM ([4]; 400 µM): −1%; Percentage (%) Cell Growth Inhibition in response to 25 µM of Drug (MCF10A): <0%
6 | CC1(C)OB(c2cccc(CN3C(=O)c4c(Cl)c(Cl)c(Cl)c(Cl)c4C3=O)c2)OC1(C)C [meta 3, 4,5,6,7-Tetrachloro-2-(3-(4,4,5,5-tetramethyl-1,3,2-dioxaborolan-2-yl)benzyl)isoindoline-1,3-dione] | 17.1 | 5.8 |  | 42 ± 6 | 70 ± 2 | 29 ± 2 | 48 ± 3 | 69 ± 7 | 33 ± 2.3 | 19 ± 0.33 | 28 ± 0.85 |  |  | inhibition % at 10 μM (almond β-glucosidase): ^cNI ^d (5.0%); inhibition at 10 µM [2]: 4.7%; inhibition at 10 µM [3]: 3.5%
7 | CC1(C)OB(c2ccccc2CNC(=O)c2cc(Cl)c(Cl)c(Cl)c2Cl)OC1(C)C [ortho 8, 2,3,4,5-tetrachloro-N-(2-(4,4,5,5-tetramethyl-1,3,2-dioxaborolan-2-yl)benzyl)benzamide] | 28.3 | −6.3 |  | 0 | 19 ± 10 | 6 ± 10 | < 0 | < 0 |  |  |  | 19.9 | 114 | IC50 (almond β-glucosidase): 254 µM
8 | CC1(C)OB(c2cccc(NC(=O)c3cc(Cl)c(Cl)c(Cl)c3Cl)c2)OC1(C)C [meta 5, 2,3,4,5-tetrachloro-N-(3-(4,4,5,5-tetramethyl-1,3,2-dioxaborolan-2-yl)phenyl)benzamide] | 30.6 | −5.7 | ^aNI ^b (30.2%) | 18 ± 6 | 49 ± 4 | 8 ± 5 | 9 ± 9 | < 0 |  |  |  | 3.3 | 30.2 | 
